The target of one assay is T1, Aurora-A (Homo sapiens, UniProt O14965).
T1 sequence (O14965 1-403): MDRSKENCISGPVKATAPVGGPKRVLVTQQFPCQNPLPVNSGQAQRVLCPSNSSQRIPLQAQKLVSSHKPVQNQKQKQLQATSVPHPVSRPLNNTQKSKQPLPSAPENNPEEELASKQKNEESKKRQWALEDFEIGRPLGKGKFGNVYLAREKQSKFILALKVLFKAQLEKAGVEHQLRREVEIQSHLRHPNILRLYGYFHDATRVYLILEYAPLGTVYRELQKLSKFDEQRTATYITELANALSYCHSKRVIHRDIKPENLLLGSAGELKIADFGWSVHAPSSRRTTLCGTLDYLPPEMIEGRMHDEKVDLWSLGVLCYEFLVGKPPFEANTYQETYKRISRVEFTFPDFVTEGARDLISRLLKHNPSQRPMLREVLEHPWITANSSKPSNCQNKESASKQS
The assay can be described thus: Aurora-A enzyme assay (MBP-coated Flashplate, γ-33P-ATP). Format: biochemical. The following applies: IC50 range class; read-out: Inhibitor Activity vs Aurora-A. The method, then:
The ability of compounds to inhibit Aurora-A activity was measured using a simple microplate assay for Aurora-A activity, also suitable for high-throughput screening. In brief, γ-^33P-ATP and Aurora-A were incubated in a myelin basic protein (MBP)-coated Flashplate® to generate a scintillation signal. The plates were formatted to contain the inhibitor, controls, positive control (staurosporin) and blanks. After incubation at 37° C. for 1 hour and a subsequent wash procedure, the plates were read on a TopCount-NXT™.
The 384-well basic Flashplate® and the γ-^33P-ATP were obtained from PerkinElmer Life Sciences, Boston, Mass.
IC50 values were determined by non-linear regression analysis, after fitting the data point results to the equation for sigmoidal dose response with variable slope (% activity against log concentration of compound), using Graphpad Prism software.
Full experimental procedure for this assay can be found within the following reference: Sun, C Journal of Biomolecular Screening 9(5), 2004, 391.

Another assay deals with Aurora-B (Homo sapiens, UniProt Q96GD4). Briefly: Aurora-B enzyme assay (identical protocol as Aurora-A). The assay is classed as biochemical. The following applies: IC50 range class; read-out: Inhibitor Activity vs Aurora-B. Put shortly:
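Aurora-B was assayed in the same way as Aurora-A: kinase and γ-33P-ATP were incubated for 1 h at 37 °C in myelin basic protein-coated scintillation plates. After washing, bound radioactivity was counted. IC50 values came from a variable-slope sigmoidal fit of % activity against log compound concentration.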

The test system of the next assay is U937 cell line. The assay can be described thus: Cell inhibition assay (SRB cell viability), U937. As to conditions: Homo sapiens, U-937, IC50 range class, 72 h, read-out: Inhibitor Activity vs U937 cell line. The assay is classed as cell-based. Put shortly:
(§1)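 Log-phase cells seeded at 1000 cells/well, grown 24 h, then exposed to compounds (20 uM final) for 72 h. Viability read by sulphorhodamine B staining as % inhibition versus DMSO; IC50 from eight-point sigmoidal variable-slope fit.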

A further assay relates to HCT 116 cell line. The assay can be described thus: Cell inhibition assay (SRB cell viability), HCT 116. Format: cell-based. The following applies: Homo sapiens, IC50 range class, 72 h, read-out: Inhibitor Activity vs HCT 116 cell line. Put shortly:
as §1

The test system of a further assay is HUT cell line. Briefly: Cell inhibition assay (SRB cell viability), HUT. The assay is classed as cell-based. As to conditions: IC50 range class, 72 h, read-out: Inhibitor Activity vs HUT cell line. In short, it runs like this:
as §1

SMILES strings stand for the structures.

Chain of Aurora-B (Q96GD4 whole entry): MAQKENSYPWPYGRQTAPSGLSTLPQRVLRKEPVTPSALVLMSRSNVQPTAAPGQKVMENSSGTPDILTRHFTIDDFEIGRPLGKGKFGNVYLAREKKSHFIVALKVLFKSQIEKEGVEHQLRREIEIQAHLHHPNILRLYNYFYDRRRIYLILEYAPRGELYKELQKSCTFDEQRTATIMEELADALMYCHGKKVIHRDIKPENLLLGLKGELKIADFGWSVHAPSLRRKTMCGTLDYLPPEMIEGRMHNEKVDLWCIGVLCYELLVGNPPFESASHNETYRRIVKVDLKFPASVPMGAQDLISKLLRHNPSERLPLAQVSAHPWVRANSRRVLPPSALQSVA

For the compound `COc1cc2c(Oc3ccc(NC(=O)c4ccccc4)cc3)ccnc2cc1OCC[C@H](NC(=O)OC(C)(C)C)C(=O)OC1CCCC1` [Example 1, (S)-4-[4-(4-Benzoylamino-phenoxy)-6-methoxy-quinolin-7-yloxy]-2-tert-butoxycarbonylamino-butyric acid cyclopentyl ester], the IC50 at Aurora-A was 2 to 5 µM; on Aurora-B, > 5 µM; in the assay with U937 cell line, < 1 µM; in the assay with HCT 116 cell line, < 1 µM; in the assay on HUT cell line, 1 to 5 µM.
As to `COc1cc2c(Oc3ccc(NC(=O)c4ccccc4)cc3)ccnc2cc1OCC[C@H](N)C(=O)OC1CCCC1` [Example 2, (S)-2-Amino-4-[4-(4-benzoylamino-phenoxy)-6-methoxy-quinolin-7-yloxy]-butyric acid cyclopentyl ester], the IC50 on Aurora-A is 2 to 5 µM; on Aurora-B, 2 to 5 µM; in the assay with U937 cell line, < 1 µM; in the assay with HCT 116 cell line, < 1 µM; with HUT cell line, < 1 µM.
`COc1cc2c(Nc3ccc(NC(=O)c4ccccc4)cc3)ccnc2cc1OCC[C@H](N)C(=O)OC1CCCC1` [Example 15, (S)-2-Amino-4-[4-(4-benzoylamino-phenylamino)-6-methoxy-quinolin-7-yloxy]-butyric acid cyclopentyl ester]: the IC50 at Aurora-A was 2 to 5 µM; at Aurora-B, > 5 µM; with U937 cell line it was 1 to 5 µM; with HCT 116 cell line, 1 to 5 µM; in the assay with HUT cell line, 1 to 5 µM.
`COc1cc2c(Sc3ccc(NC(=O)c4ccccc4)cc3)ccnc2cc1OCC[C@H](N)C(=O)OC1CCCC1` [Example 18, (S)-2-Amino-4-[4-(4-benzoylamino-phenylsulfanyl)-6-methoxy-quinolin-7-yloxy]-butyric acid cyclopentyl ester]: the IC50 was < 2 µM at Aurora-A; > 5 µM on Aurora-B; < 1 µM with U937 cell line; < 1 µM in the assay with HCT 116 cell line; < 1 µM with HUT cell line.
For the compound `COc1cc2c(Sc3ccc(NC(=O)C4CC4)cc3)ccnc2cc1OCC[C@H](N)C(=O)OC1CCCC1` [Example 20, (S)-2-Amino-4-{4-[4-(cyclopropanecarbonyl-amino)-phenylsulfanyl]-6-methoxy-quinolin-7-yloxy}-butyric acid cyclopentyl ester], the IC50 at Aurora-A was > 5 µM; at Aurora-B it was > 5 µM; in the assay with U937 cell line, < 1 µM; in the assay with HCT 116 cell line, < 1 µM; with HUT cell line, < 1 µM.
As to `COc1cc2c(Oc3ccc(NC(=O)c4ccccc4)cc3)c(Br)cnc2cc1OCC[C@H](N)C(=O)OC1CCCC1` [Example 32], the IC50 at Aurora-A was > 5 µM; on Aurora-B it was > 5 µM; in the assay on U937 cell line, 1 to 5 µM; in the assay with HCT 116 cell line it was > 5 µM; in the assay on HUT cell line, 1 to 5 µM.
For the compound `COc1cc2c(Oc3ccc(NC(=O)c4ccccc4)c(F)c3)ccnc2cc1OCC[C@H](N)C(=O)O` [Example 131, (S)-2-Amino-4-[4-(4-benzoylamino-3-fluoro-phenoxy)-6-methoxy-quinolin-7-yloxy]-butyric acid], the figures for the IC50 at Aurora-A and at Aurora-B were > 5 µM and 2 to 5 µM, respectively.
Taken in the same sequence, the figures for `COc1cc2c(Oc3ccc(NC(=O)c4ccccc4)cc3OC)ccnc2cc1OCC[C@H](N)C(=O)O` [Example 133, (S)-2-Amino-4-[4-(4-benzoylamino-2-methoxy-phenoxy)-6-methoxy-quinolin-7-yloxy]-butyric acid] were 2 to 5 µM and 2 to 5 µM.
Taken in the same sequence, the figures for `COc1cc2c(Oc3ccc(NCc4ccccc4)cc3)ccnc2cc1OCC[C@H](N)C(=O)O` [Example 139, (S)-2-Amino-4-[4-(4-benzylamino-phenoxy)-6-methoxy-quinolin-7-yloxy]-butyric acid] were 2 to 5 µM and 2 to 5 µM.
As for `COc1cc2c(Oc3ccc(CNC(=O)c4ccccc4)cc3)ccnc2cc1OCC[C@H](N)C(=O)O` [Example 142, (S)-2-Amino-4-{4-[4-(benzoylamino-methyl)-phenoxy]-6-methoxy-quinolin-7-yloxy}-butyric acid], the figures for the IC50 at Aurora-A and at Aurora-B were 2 to 5 µM and < 2 µM, respectively.

(Values after US8148531B2 (Chroma Therapeutics Ltd., priority 2005, dated 2012).)
